Reference: patent US8318638B2, “Plant activator” (Shiseido Company, Ltd., priority 1999, dated 2012)

Assays:
[1] = system: morning glory (variety: murasaki); experiment: Growth promotion effect on morning glory; assay type: in vivo; details: 100 μm aqueous solution sprayed; measured on the 16th day; N=8; FIG. 1
Method: Seeds of morning glory (variety: murasaki) (9 g) were subjected to concentrated sulfuric acid treatment for 20 minutes, and then allowed to stand under water flow overnight. Subsequently, the seeds were placed on wet sea sand such that the hila of the seeds were directed upward for 24 hours, to thereby produce roots. The seeds having roots were planted in sea sand at a position 1.5-2.0 cm below the surface of the sand, and then cultured under continuous light irradiation (for about five days).
The entire plant bodies of the morning glory having leaves produced through this culture were transferred into a culture solution [KNO2 (250 mg), NH4NO2 (250 mg), KH2PO4 (250 mg), MgSO4.7H2O (250 mg), MnSO4.4H2O (1 mg), Fe-citrate n-hydrate (6 mg), H3BO3 (2 mg), CuSO4.5H2O (0.1 mg), ZeSO4.7H2O (0.2 mg), Na2MoO4.2H2O (0.2 mg), and Ca(H2PO4)22H2O (250 mg) in distilled water (1,000 mL)].
Water or a 100 μm specific ketol fatty acid (I) aqueous solution was sprayed to the cultured morning glory, which was then placed in the dark overnight (for 14 hours). Thereafter, the morning glory was grown under continuous light irradiation at 25° C. for 16 days, and on the 16th day the height of the plant was measured (N=8). The average of the heights of the plants is shown in FIG. 1 [note: “I” shown in FIG. 1 refers to “specific ketol fatty acid (I)”; the same shall apply to the below-described Figs.].

Eustoma russellianum = experiment: Growth promotion effect on Eustoma russellianum; assay type: in vivo
cyclamen = experiment: Growth promotion effect on cyclamen; assay type: in vivo; details: 50 μm aqueous solution sprayed five consecutive days, four months after seeding; observed for 48 days; FIG. 5
Method: Four months after seeding of cyclamen, spraying of a 50 μm specific ketol fatty acid (I) aqueous solution was carried out for five consecutive days. […] The plant width and the number of leaves were both increased.

digitalis = experiment: Growth promotion effect on digitalis; assay type: in vivo; details: 80 μm aqueous solution, five consecutive days then once a week for six weeks; five-and-a-half months after spraying; FIG. 6
Method: Two weeks after seeding of digitalis, spraying of an 80 μm specific ketol fatty acid (I) aqueous solution was carried out for five consecutive days. Furthermore, three months after the start of the test; spraying of an 80 μm specific ketol fatty acid (I) aqueous solution was carried out for six weeks (once a week). Five-and-a-half months after the six-week spraying, the size of leaves and the plant height were measured.

chrysanthemum = experiment: Growth promotion effect on chrysanthemum; assay type: in vivo; details: 80 μM aqueous solution, five consecutive days then once a week for six weeks; four months after the last spraying; FIG. 7
Method: Two weeks after seeding of chrysanthemum, spraying of an 80 μm specific ketol fatty acid (I) aqueous solution was carried out for five consecutive days. Furthermore, three months after the start of the test, spraying of an 80 μM specific ketol fatty acid (I) aqueous solution was carried out for six weeks (once a week). Bolting was not observed at a nutrition growth stage of the chrysanthemum. Four months after the last spraying, the plant width was measured.

[2] = system: Dianthus caryophyllus (feeling scarlet); experiment: Growth promotion effect on Dianthus caryophyllus; assay type: in vivo; details: 100 μm aqueous solution sprayed once, 5 mL per plant; FIG. 11
Method: Seedlings of Dianthus caryophyllus (feeling scarlet) were planted in early October, and then grown by means of a customary method. In mid-April of the next year, spraying of a 100 μm specific ketol fatty acid (I) aqueous solution was carried out (5 mL per plant), and then the height of the plants was measured.

[3] = system: Oryza sativa L. (variety: koshihikari); experiment: Growth controlling effect on Oryza sativa L. seedlings (seed immersion); assay type: in vivo
Method: (1) Good-quality seeds of Oryza sativa L. (variety: koshihikari) (200 g) were immersed in water (800 mL) at 10° C. for 13 days. Thereafter, the seeds were equally divided into four groups, and the respective seed groups were immersed in specific ketol fatty acid (I) aqueous solutions (concentration: 0 μM, 1 μM, 10 μM, and 100 μM) (200 mL) at 30° C. for 1.5 days. The immersed seeds were planted in a four-divided seedbed tray, and grown under no light irradiation at 27° C. for three days. Subsequently, the grown seedlings were exposed to the typical outside environment. Six days after the exposure, 18 seedlings were randomly selected from each group, and the heights of the seedlings were measured, and then averaged. […] Subsequently, in consideration of practical handling of seedlings of Oryza sativa L., the effect of application of specific ketol fatty acid (I) was evaluated. […] In order to perform this evaluation, three weeks after the aforementioned light irradiation treatment, seedlings of each group were randomly selected, and the average of the proportions of the second leaves and third leaves was obtained. […] However, unlike the case of promotion of growth of the seedlings, the optimum concentration of the specific ketol fatty acid (I) aqueous solution is 1 μM.

[4] = system: hyphae of P. citrinopileatus; experiment: Effect of proliferating hyphae of P. citrinopileatus Sing.; assay type: cell-based, Pleurotus citrinopileatus Sing.; details: 10 μM, 30 μM, 100 μm in potato-dextrose-agar medium; 37° C.; FIG. 15
Method: A potato-dextrose-agar culture medium was sterilized by use of an autoclave. After the medium was cooled to a temperature at which the agar was not solidified, a 1 mM specific ketol fatty acid (I) aqueous solution which had been sterilized by use of a membrane filter was added to the medium, to thereby prepare four culture media; i.e., a culture medium containing 0 μM of the fatty acid (I), a culture medium containing 10 μM of the fatty acid (I), a culture medium containing 30 μM of the fatty acid (I), and a culture medium containing 100 μm of the fatty acid (I). Each of the culture media was solidified in a 10-cm plate, and then hyphae of P. citrinopileatus (one platinum loop) was inoculated on the medium. Subsequently, the hyphae were cultured at 37° C., and proliferation of the hyphae was observed (10 plates for each group). Proliferation of the hyphae was evaluated on the basis of the average of the diameters of the proliferated hyphae on the plate.

SMILES: CC/C=C\C/C=C\CC(=O)C(O)CCCCCCCC(=O)O (centres unmarked) [specific ketol fatty acid (I), 9-hydroxy-10-oxo-12(Z),15(Z)-octadecadienoic acid]
- height of the plant [1]: becomes larger
- bolting (Eustoma russellianum; 50 μm aqueous solution sprayed to rosette leaves five consecutive days, three months after seeding): bolting was observed immediately after the spraying
- plant width (Eustoma russellianum; 50 μm aqueous solution, observed for 48 days): did not increase as had been expected
- plant height (Eustoma russellianum; 50 μm aqueous solution, observed for 48 days, FIG. 4): continued to increase 48 days after observation of growth
- number of leaves (cyclamen): increased
- plant width (cyclamen): increased
- plant height (digitalis): increased
- size of leaves (digitalis): increased
- plant width (chrysanthemum): increased significantly
- height of the plants [2]: growth of the Dianthus caryophyllus plant was promoted
- optimum concentration of the aqueous solution for controlling growth of the third leaves ([3]; seed immersion, FIG. 13): 1 µM
- heights of the seedlings (degree of growth promotion) ([3]; seeds immersed in 1 μM, 10 μM, 100 μM solutions at 30° C. for 1.5 days, six days after exposure, 18 seedlings, FIG. 12): commensurate with the application amount
- growth of the third leaves (proportions of second and third leaves) ([3]; seeds immersed in 1, 10, 100 μM solutions, three weeks after light irradiation treatment, FIG. 13): exerts the effect of controlling growth of the third leaves
- degree of proliferation of the hyphae (average diameter on plate) [4]: dependent on the concentration
